The target in assay [1] is T1, bFGF (Homo sapiens, UniProt P09038).
T1 construct: purchased Lonza (via TAKARA BIO INC.) Ser. No. 00/190,632
Kind of assay: Evaluation of bFGF stabilization in Lonza serum-free medium (ELISA). Format: biochemical. The note with it: Lonza serum-free medium, 37° C. for 7 days. Here is the method: A test compound was dissolved in phosphate buffered saline, and diluted 10-fold with a serum-free medium to adjust to the concentrations shown in Table 4 (test sample). The test sample was left standing in a tightly sealed Falcon tube at 37° C. for 7 days (Tables 5 to 8-2) or 3 days (Table 8-3), and the bFGF concentration was quantified by ELISA measurement. A phosphate buffered saline without a test compound was diluted 10-fold with a serum-free medium, and left standing at 37° C. or 4° C. for 7 days or 3 days, and used as a control.
(§1) A commercially available measurement kit (human bFGF ELISA kit, ELH-bFGF-001, Ray Biotech) was used for quantification of bFGF in the medium. The measurement procedures followed the protocol attached to the kit. The bFGF concentration of the serum-free medium was calculated from the analytical curve (conversion formula) drawn from the absorbance of an analytical curve standard solution. The evaluation criteria of Tables 5-8 are as follows:
A test compound was dissolved in phosphate buffered saline, and diluted 10-fold with a serum-free medium to adjust to the concentrations shown in Table 13 (test sample). The test sample was left standing in a tightly sealed Falcon tube at 37° C. for 7 days, and the bFGF concentration was quantified by ELISA measurement. A phosphate buffered saline without a test compound was diluted 10-fold with a serum-free medium, and left standing at 37° C. or 4° C. for 7 days, and used as a control.
A commercially available measurement kit (human bFGF ELISA kit, ELH-bFGF-001, Ray Biotech) was used for quantification of bFGF in the medium. The measurement procedures followed the protocol attached to the kit. The bFGF concentration of the serum-free medium was calculated from the analytical curve (conversion formula) drawn from the absorbance of an analytical curve standard solution. The evaluation criteria of Table 13 are as follows: […]
(An ELISA detects its analyte on a solid surface through an enzyme-linked reagent.)

In assay [2] the test system is Human bone marrow-derived mesenchymal stem cells. Nature of the assay: Mesenchymal stem cell proliferation system (cell number by DNA quantification). The settings on record: mesenchymal stem cells.
Assay [3] has as its target T1, bFGF. Nature of the assay: Evaluation of bFGF stabilization in Essential 8 medium (ELISA). Format: biochemical. The note with it: 37° C. for 7 days. Here is the method:
as §1
A test compound was dissolved in phosphate buffered saline, and diluted 10-fold with a serum-free medium to adjust the concentration shown in Table 4 (test sample). The test sample was left standing in a tightly sealed Falcon tube at 37° C. for 7 days, and the bFGF concentration was quantified by ELISA measurement. A phosphate buffered saline without a test compound was diluted 10-fold with Essential 8 medium or ReproFF2 medium, and left standing at 37° C. or 4° C. for 7 days, and used as a control.
A commercially available measurement kit (human bFGF ELISA kit, ELH-bFGF-001, Ray Biotech) was used for quantification of bFGF in the medium. The measurement procedures followed the protocol attached to the kit. The bFGF concentration of the serum-free medium was calculated from the analytical curve (conversion formula) drawn from the absorbance of an analytical curve standard solution. The evaluation criteria of Table 13 are as follows:
A test compound was dissolved in phosphate buffered saline, and diluted 10-fold with a serum-free medium to adjust the concentration shown in Table 12 (test sample). The test sample was left standing in a tightly sealed Falcon tube at 37° C. for 7 days, and the bFGF concentration was quantified by ELISA measurement. A phosphate buffered saline without a test compound was diluted 10-fold with Essential 8 medium or ReproFF2 medium, and left standing at 37° C. or 4° C. for 7 days, and used as a control.

The structures appear in SMILES notation.

T1 sequence (P09038 143-288): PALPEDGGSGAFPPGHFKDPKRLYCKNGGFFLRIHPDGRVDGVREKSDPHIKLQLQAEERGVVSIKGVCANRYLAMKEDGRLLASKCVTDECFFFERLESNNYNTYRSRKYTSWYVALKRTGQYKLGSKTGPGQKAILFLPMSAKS

As for `OC[C@@H](O)[C@@H](O[C@H]1O[C@H](CO)[C@@H](O)[C@H](O)[C@H]1O)[C@H](O)[C@@H](O)CO` [maltitol, reference compound], the “bFGF concentration relative to that of 4° C. control (ELISA)” value (“bFGF concentration relative to that” for short) at bFGF [1] (test compound 25 ng/ml), at bFGF [1] (test compound 250 ng/ml), on bFGF [1] (test compound 25 μg/ml) and at bFGF [1] (test compound 250 μg/ml) was “x (bFGF concentration was less than 10% relative to that of 4 °C control)” in each case.
Take `N[C@@H](CO)C(=O)O` [serine, reference compound]: the “bFGF concentration relative to that” value on bFGF [1] (test compound 250 pg/ml), at bFGF [1] (test compound 25 ng/ml), at bFGF [1] (test compound 250 ng/ml), on bFGF [1] (test compound 25 μg/ml) and on bFGF [1] (test compound 250 μg/ml) was “x (bFGF concentration was less than 10% relative to that of 4 °C control)” in each case.
For the molecule `OC[C@@H](O)[C@@H](O)[C@H](O)[C@H](O)CO` [mannitol, reference compound], the “bFGF concentration relative to that” value at bFGF [1] (test compound 25 ng/ml), at bFGF [1] (test compound 250 ng/ml), at bFGF [1] (test compound 25 μg/ml) and at bFGF [1] (test compound 250 μg/ml) was “x (bFGF concentration was less than 10% relative to that of 4 °C control)” in each case.
Turning to `OC[C@H]1O[C@@](CO)(O[C@H]2O[C@H](CO)[C@@H](O)[C@H](O)[C@H]2O)[C@@H](O)[C@@H]1O` [sucrose, reference compound], the “bFGF concentration relative to that” value on bFGF [1] (test compound 25 ng/ml), at bFGF [1] (test compound 250 ng/ml) and on bFGF [1] (test compound 25 μg/ml) was “x (bFGF concentration was less than 10% relative to that of 4 °C control)” each time.
Take `NC(COS(=O)(=O)[O-])C(=O)O.[Na+]` (stereo not shown) [serine SO3Na]: the “number of cells relative to control” value in assay [2] (test compound 25 pg/ml), in assay [2] (test compound 250 pg/ml), in assay [2] (test compound 25 ng/ml) and in assay [2] (test compound 250 ng/ml) was “— (100-50)” throughout. In addition, the “concentration showing a suppressive effect on a decrease in the bFGF concentration of the medium” value on bFGF [1] is “not less than 25 μg/ml”. The “bFGF concentration relative to that” value was “x (bFGF concentration was less than 10% relative to that of 4 °C control)” on bFGF [1] (test compound 250 pg/ml); “x (bFGF concentration was less than 10% relative to that of 4 °C control)” on bFGF [1] (test compound 25 ng/ml); “x (bFGF concentration was less than 10% relative to that of 4 °C control)” at bFGF [1] (test compound 250 ng/ml); “− (bFGF concentration was not less than 10% and less than 30% relative to that of 4 °C control)” at bFGF [1] (test compound 25 μg/ml); “+++ (bFGF concentration was not less than 70% relative to that of 4 °C control)” on bFGF [1] (test compound 250 μg/ml).
Take `OC[C@H]1O[C@H](O[C@H]2[C@H](O)[C@@H](O)[C@@H](O[C@H]3[C@H](O)[C@@H](O)C(O)O[C@@H]3CO)O[C@@H]2CO)[C@H](O)[C@@H](O)[C@@H]1O` (stereo partly shown) [maltotriose, reference compound]: the “bFGF concentration relative to that” value on bFGF [3] (test compound 250 pg/ml), at bFGF [3] (test compound 25 ng/ml), at bFGF [3] (test compound 250 ng/ml), on bFGF [3] (test compound 25 μg/ml), on bFGF [3] (test compound 250 μg/ml) and at bFGF [1] (test compound 25 ng/ml) was “x (bFGF concentration was less than 10% relative to that of 4 °C control)” each time. The “bFGF concentration relative to that” value on bFGF [1] (test compound 250 ng/ml), on bFGF [1] (test compound 25 μg/ml) and on bFGF [1] (test compound 250 μg/ml) was “x (bFGF concentration was less than 10% relative to that of 4 °C control)” in each case.
In the case of `OC[C@H]1O[C@@H]2O[C@H]3[C@H](O)[C@@H](O)[C@@H](O[C@H]4[C@H](O)[C@@H](O)[C@@H](O[C@H]5[C@H](O)[C@@H](O)[C@@H](O[C@H]6[C@H](O)[C@@H](O)[C@@H](O[C@H]7[C@H](O)[C@@H](O)[C@@H](O[C@H]1[C@H](O)[C@H]2O)O[C@@H]7CO)O[C@@H]6CO)O[C@@H]5CO)O[C@@H]4CO)O[C@@H]3CO` [α-CD, α-cyclodextrin, reference compound], at bFGF [1] (test compound 250 μg/ml), the “bFGF concentration relative to that” value was “x (bFGF concentration was less than 10% relative to that of 4 °C control)”.
On to `OC[C@@H](O)[C@H](O)[C@@H](O)CO` [xylitol, reference compound], for which the “bFGF concentration relative to that” value on bFGF [1] (test compound 25 ng/ml), at bFGF [1] (test compound 250 ng/ml), at bFGF [1] (test compound 25 μg/ml) and on bFGF [1] (test compound 250 μg/ml) was “x (bFGF concentration was less than 10% relative to that of 4 °C control)” in each case.

Source of the values: patent US10689622B2, “Culture medium for proliferating stem cell, which contains sulfated compound” (AJINOMOTO CO., INC., priority 2012, dated 2020).
